Measured values reported in PMC6707612, “Cyclic-di-GMP binds to histidine kinase RavS to control RavS-RavR phosphotransfer and regulates the bacterial lifestyle transition between virulence and swimming” (PLoS Pathogens, 2019).
Where “and” joins values, the source holds several entries; their conditions need not be identical. Equal entries are not always repeated.

Tests used:
[1] = tested on: DHpCA^D637A, DHp-CA^G639A, DHp-CA^D640A, DHp-CA^I653A, DHp-CA^E657A and DHp-CA^L666A; assay: microscale thermophoresis (MST) binding, Ala-substituted DHp-CA proteins; set-up: species or system Xanthomonas campestris pv. campestris; details: compared with DHp-CA protein; fl-c-di-GMP used in the MST assay
Description: Fig 6 Arg^656 in the CA domain of RavS is a key residue for c-di-GMP binding. (a, b) c-di-GMP binds to the DHp-CA domain of RavS. PAS-A, PAS-B and DHp-CA in (a), and DHp and CA domains of RavS in (b), were purified and the interaction with c-di-GMP was measured by MST. Each assay was repeated three times. Standard deviations are shown. (c) Molecular docking model of the interaction between c-di-GMP and DHp-CA of RavS. c-di-GMP is shown as a ball-and-stick model and DHp-CA is shown in ribbon representation. (d) Schematic view of the predicted docking site between c-di-GMP and DHp-CA. Potential hydrogen bonds are indicated as blue dashed lines. Autodock software was used to predict the interaction. […] Ten recombinant proteins of the DHp-CA region, each containing a substitution of a putative essential residue involved in c-di-GMP binding, were used in the MST assay to quantify the Kd value of RavS–c-di-GMP binding. fl-c-di-GMP was used in the MST assay. […] The reactions were terminated with 5× SDS loading buffer and the products were separated by 12% SDS-PAGE, exposed to a phosphor screen and analysed by Typhoon FLA7000. […]
The interaction between c-di-GMP nucleotides and various proteins was measured by using MST with a fluorescein-labelled c-di-GMP (2′-Fluo-AHC-c-di-GMP, abbreviated as fl-c-di-GMP; 2′-Fluo-AHC-c-di-AMP, fl-c-di-AMP; 2′-Fluo-AHC-cGMP, fl-cGMP; Biolog, Germany). […]

[2] = molecular target: T1, RavS^ΔN (Xanthomonas campestris pv. campestris, UniProt Q8P9A6); assay: microscale thermophoresis (MST) binding; details: 20 nM fluorescein-labelled nucleotide, read-out: dissociation constant (Kd)
T1 sequence (Q8P9A6 352-697): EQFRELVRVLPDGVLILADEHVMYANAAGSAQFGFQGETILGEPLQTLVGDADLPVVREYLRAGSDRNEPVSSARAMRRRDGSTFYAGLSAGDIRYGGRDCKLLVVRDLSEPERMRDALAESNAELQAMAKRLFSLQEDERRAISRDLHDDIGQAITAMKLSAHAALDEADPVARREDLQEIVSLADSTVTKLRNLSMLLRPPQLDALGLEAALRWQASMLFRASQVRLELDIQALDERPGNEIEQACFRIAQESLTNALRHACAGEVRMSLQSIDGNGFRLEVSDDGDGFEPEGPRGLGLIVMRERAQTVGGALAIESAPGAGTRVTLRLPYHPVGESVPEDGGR
Description: (§1) The interaction between c-di-GMP nucleotides and various proteins was measured by using MST with a fluorescein-labelled c-di-GMP (2′-Fluo-AHC-c-di-GMP, abbreviated as fl-c-di-GMP; 2′-Fluo-AHC-c-di-AMP, fl-c-di-AMP; 2′-Fluo-AHC-cGMP, fl-cGMP; Biolog, Germany). These chemicals contain carboxyfluorescein that has excitation and emission wavelengths of 497 nm and 520 nm, respectively, which can be detected directly by a MST instrument. The experiments were performed on a Monolith NT.115 device using standard treated capillaries (NanoTemper Technologies, Germany). The concentration of the particular protein varied from 0.036 to 150 μM with a 2-fold gradient and the concentration of fl-c-di-GMP was constant at 20 nM. Fluorescence intensity due to thermophoresis was recorded using the blue channel optics of the instrument (λex = 470 ± 15 nm, λem = 520 ± 10 nm) during a 30 s period of infrared laser heating at 80% of the maximum laser power, followed by a 5 s cooling period. Measurements were performed in buffer containing 20 mM HEPES, pH 7.5, 150 mM NaCl, 2 mM MgCl2, 2 mM DTT and 0.05% Tween 20. […]
(§2) Supplementary file ppat.1007952.s007.pdf: S7 Fig c-di-GMP specifically binds to RavS to enhance the RavS-RavR phosphotransfer. […] The interactions of RavS^ΔN, RavA, VgrS and RavR^ΔEAL with fl-c-di-GMP were measured by microscale thermophoresis (MST). Twenty nanomolar fluorescein-labelled nucleotides and increasing concentrations of proteins were co-incubated and potential interactions were measured by MST. The dissociation constant (Kd) was determined to estimate the binding affinity. […]
(§3) (b) RavSΔN specifically interacts with fl-c-di-GMP. The interactions of RavSΔN, RavA, VgrS and RavRΔEAL with fl-c-di-GMP were measured by microscale thermophoresis (MST). Twenty nanomolar fluorescein-labelled nucleotide and increasing concentrations of proteins were co-incubated and potential interactions were measured by MST.
(§4) The dissociation constant (Kd) was determined to estimate the binding affinity. […]

[3] = molecular target: RavA (Xanthomonas campestris pv. campestris, UniProt Q8P9A8); assay: microscale thermophoresis (MST) binding; details: 20 nM fluorescein-labelled nucleotide, read-out: dissociation constant (Kd)
Description: as §1, §2, §3, §4

[4] = molecular target: VgrS (Xanthomonas campestris pv. campestris, UniProt Q8P666); assay: microscale thermophoresis (MST) binding; details: 20 nM fluorescein-labelled nucleotide, read-out: dissociation constant (Kd)
Description: as §1, §2, §3, §4

Chain of VgrS (Q8P666 entry or part of it): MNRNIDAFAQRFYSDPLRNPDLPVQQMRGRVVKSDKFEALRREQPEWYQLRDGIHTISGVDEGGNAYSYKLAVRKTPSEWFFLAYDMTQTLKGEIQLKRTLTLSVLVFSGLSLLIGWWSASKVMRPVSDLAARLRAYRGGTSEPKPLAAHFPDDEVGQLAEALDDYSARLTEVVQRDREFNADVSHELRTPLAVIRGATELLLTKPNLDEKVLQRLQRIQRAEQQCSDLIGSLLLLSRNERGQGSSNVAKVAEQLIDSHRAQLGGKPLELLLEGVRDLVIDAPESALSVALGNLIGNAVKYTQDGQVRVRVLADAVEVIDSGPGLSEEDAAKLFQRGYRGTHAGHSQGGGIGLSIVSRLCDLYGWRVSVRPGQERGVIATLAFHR
Chain of RavA (Q8P9A8 entry or part of it): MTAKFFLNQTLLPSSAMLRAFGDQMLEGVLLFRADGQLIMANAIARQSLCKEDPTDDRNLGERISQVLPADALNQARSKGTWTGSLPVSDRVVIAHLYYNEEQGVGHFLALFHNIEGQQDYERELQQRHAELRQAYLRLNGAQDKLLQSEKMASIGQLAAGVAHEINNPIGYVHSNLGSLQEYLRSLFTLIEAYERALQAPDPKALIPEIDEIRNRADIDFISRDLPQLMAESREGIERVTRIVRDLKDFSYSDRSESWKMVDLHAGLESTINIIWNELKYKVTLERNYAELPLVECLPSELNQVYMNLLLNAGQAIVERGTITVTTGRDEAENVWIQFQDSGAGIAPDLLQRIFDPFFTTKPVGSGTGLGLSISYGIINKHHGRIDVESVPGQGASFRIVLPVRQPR

Row | Structure (SMILES) | change in c-di-GMP binding affinity [1] | Kd [2] | Kd [3] | Kd [4]
1 | Nc1nc2c(ncn2[C@@H]2O[C@@H]3COP(=O)(O)O[C@H]4[C@@H](O)[C@H](n5cnc6c(=O)[nH]c(N)nc65)O[C@@H]4COP(=O)(O)O[C@H]3[C@H]2O)c(=O)[nH]1 [c-di-GMP, Cyclic di-GMP] | no significant change | – | – | –
2 | Nc1nc2c(ncn2[C@@H]2O[C@@H]3COP(=O)(O)O[C@H]4[C@@H](OC(=O)NCCCCCCNC(=O)c5ccc6c(c5)C(=O)OC65c6ccc(O)cc6Oc6cc(O)ccc65)[C@H](n5cnc6c(=O)[nH]c(N)nc65)O[C@@H]4COP(=O)(O)O[C@H]3[C@H]2O)c(=O)[nH]1 [fl-c-di-GMP, 2′-Fluo-AHC-c-di-GMP] | – | 5.62 ± 0.74 µM | 116 µM and > 80 µM | 88.1 µM and > 80 µM
